Experimental data reported in patent US4590277A, “Acridinecarboxamide compounds” (Development Finance Corporation of New Zealand, priority 1982, dated 1986).

Key:
P388 tumour cells = experiment: P388 in vivo, life span extension; design: species or system mice (F1 hybrid, DBA-2 male x C57 B1 female); key to P388 in vivo Active: Y: implies a significant value of drug activity at the stated dose; N: implies no or not statistically significant activity; details: for P388 in vivo ILS (percentage increase in life span): at optimal dose, days 1, 5 and 9, vs controls (average survival 11 days), greater than 20% statistically significant; for P388 in vivo Active: at the stated (optimal) dose
Experimental: P388 in vivo--Tumour P388 cells were obtained as frozen stocks from Mason Research Inc., U.S.A. and passaged intraperitoneally according to standard methods (Cancer Chemother. Rep. 3, Part 3, page 9, 1972) in DBA-2 mice of either sex. Groups of six Fl hybrid mice (DBA-2 male x C57 B1 female, g weight 20±1 g) were injected intraperitoneally with 10^6 cells on day 0.
O.D.--optimal drug dose, in milligrams per kilogram, administered as a solution in 0.1 ml of 30% v/v ethyl alcohol in water on days 1, 5 and 9 after tumour inoculation. The drug is administered as a soluble acid addition salt.
ILS--percentage increase in life span of treated animals over that of groups of control animals injected with tumour alone. The average survival of control mice was 11 days. Values of ILS greater than 20% are considered statistically significant.
Y. implies a significant value of drug activity at the stated dose.
N. implies no or not statistically significant activity.

[1] = tested on: murine L1210 leukaemic cells; experiment: L1210 in vitro growth inhibition; format: cell-based; details: Mus musculus, drug added to cultures over 70 hours, 50% reduction of counted leukaemia cells, below 1000 nM considered significant, read-out: L1210 in vitro ID50
Experimental: L1210 in vitro--The culture methods used are described in detail elsewhere (B. C. Baguley and R. Nash, Europ. J. Cancer, 17, 671-679 (1981)). Acceptable reproducibility of data depends critically upon the maintenance of optimal culture conditions. L1210 cells were initially obtained from Dr I. Wodinsky, Arthur D. Little Inc., Boston, U.S.A., under the auspices of the National Cancer Institute.
Values below 1000 nM are considered significant.

[2] = Reversed phase partition chromatography (lipophilic-hydrophilic balance); format: physicochemical; details: linearly related to partition coefficients in 1-octanol/water, read-out: Rm
Description: Rm=a measure of the compound's lipophilic-hydrophilic balance from reversed phase partition chromatography. Rm is linearly related to partition coefficients obtained in the 1-octanol/water system.

Streptococcus faecalis = experiment: Antibacterial activity
Xanthomonas phaseoli = experiment: Antibacterial activity
Sarcina lutea = experiment: Antibacterial activity
Staphylococcus aureus = experiment: Antibacterial activity
Alcaligenes viscolatis = experiment: Antibacterial activity
Neisseria catarrhalis = experiment: Antibacterial activity
Bacillus subtilis = experiment: Antibacterial activity
[3] = tested on: Micrococcus lysodeikticus; experiment: Antibacterial activity
Escherichia coli = experiment: Antibacterial activity
Aerobacter aerogenes = experiment: Antibacterial activity
[4] = cited from earlier work

Structure (SMILES)	P388 in vivo ILS (percentage increase in life span) (P388 tumour cells) [%]	P388 in vivo Active (P388 tumour cells)	IC50 [1] [nM]	chromatographic logP [2]	further results
CN(C)CCNC(=O)c1cccc2cc3ccccc3nc12 [Compound 1]	91	Y	105	-0.2	
Cc1c2ccccc2nc2c(C(=O)NCCN(C)C)cccc12 [Compound 2, N-(2-dimethylaminoethyl)-9-methylacridine-4-carboxamide]	14	N	66	-0.3	
CNc1c2ccccc2nc2c(C(=O)NCCN(C)C)cccc12 [Compound 3]	53	Y	15	-1.11	
CN(C)CCNC(=O)c1cccc2c(N)c3ccccc3nc12 [Compound 4]	98	Y		-1.11	Antibacterial activity (Streptococcus faecalis): active; Antibacterial activity (Xanthomonas phaseoli): active; Antibacterial activity (Sarcina lutea): active; Antibacterial activity (Staphylococcus aureus): active; Antibacterial activity (Alcaligenes viscolatis): active; Antibacterial activity (Neisseria catarrhalis): active; Antibacterial activity (Bacillus subtilis): active; Antibacterial activity [3]: active; Antibacterial activity (Escherichia coli): active; Antibacterial activity (Aerobacter aerogenes): active
CN(C)CCCNC(=O)c1cccc2c(N)c3ccccc3nc12 [Compound 5]	0	N	157	-0.93	
Nc1c2ccccc2nc2c(C(=O)NCCNCCO)cccc12 [Compound 6]	80	Y	77	-1.06	
CCN(CC)CCNC(=O)c1cccc2c(N)c3ccccc3nc12 [Compound 7]	70	Y	5.5	-0.67	
NCCNC(=O)c1cccc2c(N)c3ccccc3nc12 [Compound 8]	71	Y	414	-1.18	
CN(C)CCNC(=O)c1cc([N+](=O)[O-])cc2c(N)c3ccccc3nc12 [Compound 9]	25	Y	319		
CN(C)CCNC(=O)c1cc(N)cc2c(N)c3ccccc3nc12 [Compound 10]	28	Y	162		
CN(C)CCNC(=O)c1cccc2c(N)c3cccc([N+](=O)[O-])c3nc12 [Compound 11]	39	Y	1.3		
CN(C)CCNC(=O)c1cccc2c(N)c3cccc(N)c3nc12 [Compound 12]	58	Y	18		
Cc1cccc2c(N)c3cccc(C(=O)NCCN(C)C)c3nc12 [Compound 13]	107	Y	0.33	-1.02	
COc1cccc2c(N)c3cccc(C(=O)NCCN(C)C)c3nc12 [Compound 14]	81	Y	4.3	-1.06	
CN(C)CCNC(=O)c1cccc2c(N)c3cccc(Cl)c3nc12 [Compound 15]	81	Y	2.9		
CN(C)CCNC(=O)c1cccc2c(N)c3ccc([N+](=O)[O-])cc3nc12 [Compound 16]	23	Y	0.05		
CN(C)CCNC(=O)c1cccc2c(N)c3ccc(N)cc3nc12 [Compound 17]	58	Y	35		
Cc1ccc2c(N)c3cccc(C(=O)NCCN(C)C)c3nc2c1 [Compound 18]	20	N	55	-0.82	
COc1ccc2c(N)c3cccc(C(=O)NCCN(C)C)c3nc2c1 [Compound 19]	17	N	151		
CN(C)CCNC(=O)c1cccc2c(N)c3cc([N+](=O)[O-])ccc3nc12.Cl.Cl [Compound 20, N-(2-dimethylaminoethyl)-9-amino-7-nitroacridine-4-carboxamide dihydrochloride]	34	Y	104	-1.29	
CN(C)CCNC(=O)c1cccc2c(N)c3cc(N)ccc3nc12 [Compound 21]	80	Y	48	-1.64	
Cc1ccc2nc3c(C(=O)NCCN(C)C)cccc3c(N)c2c1 [Compound 22]	0	N	605		
COc1ccc2nc3c(C(=O)NCCN(C)C)cccc3c(N)c2c1 [Compound 23]	4	N	518		
CN(C)CCNC(=O)c1cccc2c(N)c3cc(Cl)ccc3nc12 [Compound 24]	8	N	722		
CCN(CC)CCCC(C)Nc1c2ccc(Cl)cc2nc2ccc(OC)cc12 (centres unmarked) [mepacrine]					Local clinical cytostatic effects [4]: Local clinical cytostatic effects
